From paper PMC7281150, “Inspired by Sea Urchins: Warburg Effect Mediated Selectivity of Novel Synthetic Non-Glycoside 1,4-Naphthoquinone-6S-Glucose Conjugates in Prostate Cancer” (Marine Drugs, 2020)
Converted amounts (≈) assume the structure as drawn. Like-named read-outs stand apart in the source and are kept apart here.

What was measured:
[1] = test system: human drug-resistant prostate cancer PC-3 cells; experiment: MTT cytotoxicity in PC-3 cells; format: cell-based; conditions: for IC50: 24 h, read-out: IC50 (viability of PC-3 cells)
Protocol: (§1) Cell viability was determined by MTT assay. Cells were pre-incubated overnight in 96-well plates (6 × 10^3 cells/well in 100 μL/well). Then, the medium was replaced with fresh medium containing the determined compounds (100 μL/well), and cells were incubated for the indicated time. Next, 10 μL/well of (3-(4,5-dimethylthiazol-2-yl)-2,5-diphenyltetrazolium bromide) reagent were added. After 2–4 h of incubation, the media was aspirated and the plates were dried. Fifty microliters per well of DMSO were added to each well and the cell viability was measured using Infinite F200PRO reader (TECAN, Männedorf, Switzerland). Results were calculated by The GraphPad Prism software v. 7.05 (GraphPad Prism software Inc., La Jolla, CA, USA) and are represented as IC50 of the compounds against control cells treated with the solvent alone.

22Rv1 cells [2] = experiment: MTT cytotoxicity in 22Rv1 cells with or without N-acetyl-L-cysteine; format: cell-based, human; conditions: without NaC, FBS- and glucose-free media, 48 h, read-out: IC50 (viability of 22Rv1 cells)
Protocol: as §1

PC-3 cells [3] = experiment: Glucose uptake assay (2-NBDG), plate reader-based measurement; format: cell-based, human; conditions: PC-3, 24 h
Protocol: (§2) The effects of the synthesized substance on glucose uptake were evaluated using the Glucose Uptake Cell-Based Assay Kit (Cayman chemicals, Ann Arbor, MI, USA) and two different methods. (a) Plate reader-based measurement: PC-3 cells (12 × 10^3 cells/well) were seeded in two 96-well plates, incubated overnight, and treated with the investigated drugs in 100 µL/well of glucose-free 0.1% FBS/RPMI media for 24 h. Then, the 10 µL/well of either 2-NBDG solution (2-deoxy-2-[(7-nitro-2,1,3-benzoxadiazol-4-yl)amino]-D-glucose, 5 mg/mL, for glucose uptake measurements) or vehicle solution (for cell viability measurements) in glucose-free 0.1% FBS/RPMI media were added to each well. […] Then, for glucose uptake measurements, the 100 µL/well of PBS were added and the fluorescence was measured using Infinite F200PRO reader (TECAN, Männedorf, Switzerland); or, for the cell viability measurements, 100 µL/well of media containing MTS reagent were added to the cells and viability was measured as described before. Glucose uptake rate was normalized to the cell viability measured by MTS assay in order to measure the uptake rate exclusively in the viable cells. (b) FACS-based readout: The experiment was performed as described before. […] The plates were then incubated with 2-NBDG solution, the cells were harvested by trypsination, washed, stained with PI, and analyzed using a flow cytometry.

PC-3 cells [4] = experiment: Glucose uptake assay (2-NBDG), FACS-based readout; format: cell-based, human; conditions: PC-3, 24 h
Protocol: as §2

PC-3 cells [5] = format: cell-based, human; conditions: PC-3, zVAD 100 µM, 48 h
22Rv1 cells [6] = experiment: Analysis of cell cycle progression and DNA fragmentation (PI staining, FACS); format: cell-based, human; conditions: 22Rv1, 48 h
Protocol: Cells (2 × 10^5 cells/well) were pre-incubated overnight in 6-well plates. Then, cells were treated with the substances in 2 mL of fresh culture media/well for 48 h. Cells were harvested by trypsination, fixed in 70% EtOH, stained with PI, and analyzed by FACS Calibur (BD Bioscience, San Jose, CA, USA). The results were quantified using BD Bioscience Cell Quest Pro v.5.2.1. software (BD Bioscience, San Jose, CA, USA). The sub-G1 population was considered to reflect apoptotic cells (containing fragmented DNA).

22Rv1 cells [7] = experiment: Western blotting of protein expression; format: cell-based, human
Protocol: (§3) Cells (10^6 cells/well) were seeded in Petri dishes (ø 6 cm) and incubated overnight. The cells were treated with the investigational drugs in fresh culture media (5 mL/dish) for 48 h. Then, cells were harvested by scratching and lysed in the lysis buffer (1% NP-40, 50 mM Tris-HCl (pH 7.6), 0.88% NaCl, 0.25% sodium cholate, 1 mM Na3VO4, 0.1 mM PMSF, protease inhibitors cocktail (cOmplete Mini EDTA-free EASYpacks, Roche, Mannheim, Germany)). Proteins were extracted and diluted with lysis buffer and loading dye, heated 5 min at 99 °C and subjected to electrophoresis in gradient Mini-PROTEAN® TGX Stain-Free^TM gels (Bio-Rad, Hercules, CA, USA). Proteins were transferred from gel to 0.2 µm pore PVDF membrane using Trans-Blot® Turbo^TM RTA Mini PVDF Trans kit (Bio-Rad) and Trans-Blot® Turbo^TM Blotting System (Bio-Rad) according to the manufactures protocol. The membrane was blocked (5% BSA in 0.05% Tween-20/TBS), treated with primary and secondary antibodies, and the signals were detected using the ECL chemiluminescence system (Thermo Scientific, Rockford, IL, USA). All procedures were performed according to the manufacturer′s protocols.

22Rv1 cells [8] = experiment: Analysis of intracellular ROS level (CM-H2DCFDA, FACS); format: cell-based, human; conditions: 22Rv1, 0.5 μM, 2 h
Protocol: Intracellular ROS levels were accessed using the ROS-sensitive CM-H2DCFDA reagent (Cat. No. C6827, Molecular probes, Invitrogen, Eugene, OR, USA). The experiment was performed as previously described with slight modifications. In brief, 22Rv1 cells (10^5 cells/well) were seeded in 12-well plates and incubated overnight. The media was changed with freshly made pre-warmed staining solution (4 µM CM-H2DCFDA/PBS, 0.5 mL/well) and incubated in the dark (37 °C, 5% CO2) for 30 min. Then, the staining solution was exchanged with 1 mL/well of pre-warmed PBS containing the investigated compounds or H2O2 (positive control) at the indicated concentrations and the cells were incubated for 2 h. Next, the cells were trypsinized, resuspended in pre-warmed PBS (200 µL/sample) and immediately analyzed by FACS according to the manufacture′s protocol.

22Rv1 cells [9] = experiment: Analysis of mitochondrial membrane potential (JC-1, FACS); format: cell-based, human; conditions: 22Rv1, 2 μM
Protocol: The drop down of mitochondrial membrane potential (ΔΨm) was measured using staining with ΔΨm-sensitive JC-1 dye (5,5′,6,6′-Tetrachloro-1,1′,3,3′-tetraethyl-imidacarbocyanine iodide) and flow cytometry technique. Cells (10^5 cells/well) were seeded in 12-well plates and incubated overnight. […] The cells were trypsinized, pelleted, resuspended in 100 µL of 2 µM JC-1/PBS, incubated for 1 h (37 °C, 5% CO2, in the dark), and analyzed by flow cytometry technique.

22Rv1 cells [10] = experiment: Cell fractionation (mitochondrial, cytoplasmic, total) with Western blotting; format: cell-based, human; conditions: 22Rv1, 48 h
Protocol: as §3
The separation of cellular nuclear, mitochondrial, and cytosolic fractions was performed using the Cell Fractionation Kit ab109719 (abcam, Cambridge, MA, USA). […]

[11] = test system: human cancer HeLa S3 cells; parameters: method as in PMID 3437287; conditions: cited from earlier work

Row | Molecule | IC50 ([1]; glucose-containing media (+Glc, 2 g/L)) | IC50 ([1]; glucose-free media (−Glc)) | higher cytotoxicity compared with SAB-14 ([1]; screening, MTT, 48 h) | IC50 (22Rv1 cells [2]) | glucose uptake (2-NBDG, plate reader), normalized to cell viability (PC-3 cells [3]) | glucose uptake (2-NBDG, single cells by flow cytometry), normalized to cell viability (PC-3 cells [4]) | effect of co-treatment with pan-caspase inhibitor zVAD on cytotoxic effects (PC-3 cells [5]) | DNA fragmentation (sub-G1 peak) (22Rv1 cells [6]) | cell cycle progression (22Rv1 cells [6]) | caspase-9 activation (cleaved caspase-9, Western blotting) (22Rv1 cells [7]; 22Rv1, 2 h) | cleavage of caspase-3 (Western blotting) (22Rv1 cells [7]; 22Rv1, 48 h) | p21 expression (Western blotting) (22Rv1 cells [7]; 22Rv1, 48 h) | PARP cleavage (Western blotting) (22Rv1 cells [7]; 22Rv1, 48 h, concentrations close to IC50s) | ROS level (CM-H2DCFDA, FACS) (22Rv1 cells [8]) | cells containing depolarized mitochondria (JC-1) (22Rv1 cells [9]; 2 h) | cells containing depolarized mitochondria (JC-1) (22Rv1 cells [9]; 48 h) | redistribution of mitochondrial proteins (cytochrome C, AIF) to cytoplasm (22Rv1 cells [10]) | IC50 (colony formation) [11]
1 | 6-(1,2,3,4-Tetra-O-acetyl-6-deoxy-β-D-glucopyranos-6-ylthio)-5,8-dihydroxy-7-methyl-2,3-dimethoxy-1,4-naphthoquinone [SAB-13] | 10.8 ± 1.7 µM | 5 ± 1.1 µM | ~ 10 fold | 2.3 ± 0.3 µM | inhibition of glucose uptake | inhibition of glucose uptake | antagonized the cytotoxic effects | DNA fragmentation | G2/M-cell cycle arrest | activated caspase-9 shortly after treatment | cleavage of caspase-3 was observed | upregulation of p21 | PARP cleavage | 31.2±3.2% | 47.3±6.1% | 69.5±8.1% | release of cytotoxic mitochondrial proteins to cellular cytoplasm | 
2 | COC1=C(OC)C(=O)c2c(O)c(OC)cc(O)c2C1=O [tricrozarin B] |  |  |  |  |  |  |  |  |  |  |  |  |  |  |  |  |  | 7 ng/mL (≈ 0.025 µM)
